Results taken from patent US9845297B2, “Antimicrobial compounds and methods of making and using the same” (Melinta Therapeutics, Inc., priority 2009, dated 2017).

Tested on: Eschericia coli strain ATCC25922
Assay: standard microdilution assay to determine minimum inhibitory concentrations (MICs)
Assay type: cell-based
Conditions: Escherichia coli, ATCC25922, Eschericia coli strain ATCC25922, standard microdilution assay; read-out: E. coli ATCC25922 MIC
Method: Minimum inhibitory concentrations (MICs) are determined by the microdilution method, typically in a final volume of 100 microliters, according to protocols outlined by The Clinical and Laboratory Standards Institute [CLSI; formerly the National Committee for Clinical Laboratory Standards (NCCLS)]. See CLSI: Methods for dilution antimicrobial susceptibility tests for bacteria that grow aerobically; approved standard-fifth edition. Wayne, Pa.: NCCLS; 2000. The assays can be also be performed in microtiter trays according to conventional methodologies as published by the CLSI. See CLSI. Methods for Dilution Antimicrobial Susceptibility Tests for Bacteria That Grow Aerobically; Approved Standard-Seventh Edition. CLSI Document M7-A7 [ISBN 1-56238-587-9] CLSI, 940 West Valley Road, Suite 1400, Wayne Pa. 19087-1898 USA, 2006).
The compounds of the present invention were tested for antimicrobial activity. The compounds were run against Eschericia coli strain ATCC25922 using a standard microdilution assay to determine minimum inhibitory concentrations (MICs). […] A “N/A” means that data is unavailable. It will be recognized by one skilled in the art that the compounds can be assessed against other bacterial organisms and that the presentation of data for activity against Eschericia coli is illustrative and in no way is intended to limit the scope of the present invention. The compounds of the present invention can be assayed against a range of other microorganisms depending upon the performance activity desired to be gathered. Furthermore, the “+”, “−”, and “N/A” representation and the selection of a cutoff value of 16 micrograms/ml is also illustrative and in no way is intended to limit the scope of the present invention.

| SMILES | MIC |
| --- | --- |
| NCCCCNC1CCN(c2c[nH]c(NC(=O)Nc3ccccc3OC(F)(F)F)nc2=O)CC1 [Compound 599] | > 16 µg/mL |
| NCCCNCc1ccc(-c2c[nH]c(NC(=O)Nc3cc(C(F)(F)F)ccc3Cl)nc2=O)cc1F [Compound 497] | < 16 µg/mL |
| NCCCNCc1ccc(-c2c[nH]c(NC(=O)Nc3ccc(F)c(F)c3F)nc2=O)cc1F [Compound 462] | > 16 µg/mL |
| Cn1nnc2cc(C(=O)Nc3ccn(CCC[C@H](CCCNC(=N)N)NCCCN)c(=O)n3)ccc21 [Compound 157] | > 16 µg/mL |
| N=C(N)NCCCN1CC2(CCN(c3c[nH]c(NC(=O)Nc4ccccc4OC(F)(F)F)nc3=O)CC2)C1 [Compound 484] | > 16 µg/mL |
| NCCCNCc1ccc(-c2c[nH]c(Nc3nc4ccccc4[nH]3)nc2=O)cc1F [Compound 412] | < 16 µg/mL |
| O=C(Nc1nc(=O)c(-c2ccc(CNCCc3ccncc3)cc2)c[nH]1)Nc1cc(F)c(F)cc1F [Compound 322] | > 16 µg/mL |
| NC(=O)NCCCNCc1ccc(-c2c[nH]c(NC(=O)Nc3cc(F)c(F)cc3F)nc2=O)cc1 [Compound 395] | > 16 µg/mL |
| NCCCN(CCCN)Cc1c(F)cc(-c2c[nH]c(NC(=O)Nc3cc(F)c(F)cc3F)nc2=O)cc1F [Compound 295] | > 16 µg/mL |
| NCc1ccc(-c2c[nH]c(NC(=O)Nc3ccccc3OC(F)(F)F)nc2=O)cc1F [Compound 247] | > 16 µg/mL |
| CN1CCN(c2ccc(C(=O)Nc3ccn(CCC[C@H](CCCNC(=N)N)NCCCN)c(=O)n3)cc2)CC1 [Compound 190] | < 16 µg/mL |
| NCCCNCc1ccc(-c2c[nH]c(NC(=O)Nc3ccccc3OCCCC(=O)O)nc2=O)cc1 [Compound 1297] | > 16 µg/mL |
| NCCCN(CCCN)Cc1ccc(-n2cc(F)c(N)nc2=O)cc1 [Compound 143] | > 16 µg/mL |
| O=C(Nc1nc(=O)c(-c2ccc(CNCCCCO)cc2)c[nH]1)Nc1ccccc1OC(F)(F)F [Compound 342] | > 16 µg/mL |
| NCCCNCc1ccc(-c2c[nH]c(NC(=O)Nc3cc(F)c(F)cc3F)nc2=O)c(F)c1 [Compound 434] | > 16 µg/mL |
| Cc1[nH]c(NC(=O)Nc2ccccc2OC(F)(F)F)nc(=O)c1CC(=O)N1CCN(CCCN)CC1 [Compound 406] | > 16 µg/mL |
| CCS(=O)(=O)c1ccc2oc(Nc3nc(=O)c(-c4ccc(CN(CCCN)CCCN)c(F)c4)c[nH]3)nc2c1 [Compound 427] | > 16 µg/mL |
| NCCCN(CCCN)Cc1ccc(-c2c[nH]c(NC(=O)Nc3ccccc3OC(F)(F)F)nc2=O)cc1 [Compound 256] | < 16 µg/mL |
| N=C(N)NCCCN(CCCN)Cc1ccc(-c2c[nH]c(NC(=O)NCCc3ccc(F)cc3)nc2=O)cc1 [Compound 465] | > 16 µg/mL |
| NC[C@@H](N)C(=O)Nc1ccc(-c2c[nH]c(NC(N)=O)cc2=O)cc1 [Compound 162] | > 16 µg/mL |
| NCCCNCc1ccc(-c2c[nH]c(NC(=O)Nc3ccc([N+](=O)[O-])cc3Cl)nc2=O)cc1F [Compound 494] | > 16 µg/mL |
| NCCCNCc1ccc(-c2c[nH]c(NC(=O)NCCc3nc4cc(F)c(F)cc4[nH]3)nc2=O)cc1F [Compound 554] | > 16 µg/mL |
| NCCCN(CCCN)Cc1ccc(-c2c[nH]c(NC(=O)Nc3cc(F)c(F)cc3F)nc2=O)cc1 [Compound 178] | > 16 µg/mL |

| SMILES | MIC |
| --- | --- |
| Cc1ncc(-c2cccc(NC(=O)Nc3nc(=O)c(-c4ccc(CNCCCN)c(F)c4)c[nH]3)c2)s1 [Compound 446] | > 16 µg/mL |
| NCCCNCc1ccc(-c2c[nH]c(NC(=O)Nc3cccc(Cl)c3Cl)nc2=O)c(F)c1 [Compound 433] | < 16 µg/mL |
| NCCCNCc1ccc(-c2c[nH]c(NC(=O)NCCc3ccccc3OC(F)(F)F)nc2=O)cc1F [Compound 512] | > 16 µg/mL |
| Cc1ccc(NC(=O)Nc2nc(=O)c(-c3ccc(CNCCCN)c(F)c3)c[nH]2)cc1C(F)(F)F [Compound 481] | > 16 µg/mL |
| N=C(N)NCCCNCc1ccc(-c2c[nH]c(NC(=O)Nc3cc(F)c(F)cc3F)nc2=O)cn1 [Compound 585] | > 16 µg/mL |
| O=C(O)CCNCc1ccc(-c2c[nH]c(NC(=O)Nc3cc(F)c(F)cc3F)nc2=O)cc1 [Compound 315] | > 16 µg/mL |
| Cc1c(Cl)cc2nc(Nc3nc(=O)c(-c4ccc(CN(CCCN)CCCN)c(F)c4)c[nH]3)oc2c1Cl [Compound 472] | > 16 µg/mL |
| NCCCNCc1ccc(-c2c[nH]c(NC(=O)Nc3ccc(C(F)(F)F)cc3Cl)nc2=O)cc1F [Compound 419] | < 16 µg/mL |
| NCCCCCN1CCC(c2c[nH]c(NC(=O)Nc3ccccc3OC(F)(F)F)nc2=O)CC1 [Compound 550] | > 16 µg/mL |
| N=C(Nc1ccccc1)Nc1nc(=O)c(-c2ccc(CNCCCN)c(F)c2)c[nH]1 [Compound 573] | > 16 µg/mL |
| N=C(N)NCCC[C@H](N)CCCn1ccc(N)nc1=O [Compound 118] | > 16 µg/mL |
| NCCCNCc1ccc(-c2c[nH]c(Nc3nc4ccccc4[nH]3)nc2=O)cc1 [Compound 334] | < 16 µg/mL |
| NCCCNCc1ccc(-c2c[nH]c(NC(=O)Nc3ccccc3OC(F)(F)F)nc2=O)cc1C(F)(F)F [Compound 269] | < 16 µg/mL |
| CC(C)=CCNCc1ccc(-c2c[nH]c(NC(=O)Nc3cc(F)c(F)cc3F)nc2=O)cc1 [Compound 317] | > 16 µg/mL |
| NCCCN1CCCC(c2c[nH]c(NC(=O)Nc3ccccc3OC(F)(F)F)nc2=O)CC1 (centres unmarked) [Compound 516] | > 16 µg/mL |
| NCCCN[C@H]1CCN(C(=O)Cc2c[nH]c(NC(=O)Nc3ccccc3OC(F)(F)F)nc2=O)C1 [Compound 407] | > 16 µg/mL |
| N=C(N)NCCCCN[C@H](CCCCNC(=N)N)CCn1ccc(NC(N)=O)nc1=O [Compound 120] | > 16 µg/mL |
| NCCCN(CCCN)Cc1ccc(-c2c[nH]c(Nc3nc4cc(F)c(F)cc4o3)nc2=O)cc1 [Compound 470] | < 16 µg/mL |
| COc1nc(Nc2nc3ccccc3o2)ncc1-c1ccc(CNCCCN)c(F)c1 [Compound 589] | > 16 µg/mL |
| CN(C(=O)C[C@H](CCCNC(=N)N)NC(=O)CCO)C1CNC(NC(N)=O)=NC1=O (some centres unmarked) [Compound 104] | > 16 µg/mL |
| NCCCN(CCCN)Cc1ccc(-c2c[nH]c(Nc3nc4ccccc4s3)nc2=O)cc1F [Compound 383] | > 16 µg/mL |
| NCCCN(CCCOC(=O)Nc1ccccc1OC(F)(F)F)Cc1ccc(-c2c[nH]c(NC(=O)Nc3ccccc3OC(F)(F)F)nc2=O)cc1 [Compound 305] | > 16 µg/mL |
| NCCCNCc1ccc(-c2c[nH]c(NC(=O)Nc3ccc(F)c([N+](=O)[O-])c3)nc2=O)cc1F [Compound 389] | > 16 µg/mL |

| SMILES | MIC |
| --- | --- |
| NCCCNCc1ccc(-c2c[nH]c(NC(=O)Nc3cc(F)c(F)cc3F)nc2=O)cc1F [Compound 265] | > 16 µg/mL |
| N=C(N)NCCCNC1CCN(c2c[nH]c(NC(=O)Nc3ccccc3OC(F)(F)F)nc2=O)C1 (centres unmarked) [Compound 431] | > 16 µg/mL |
| O=C(Nc1nc(=O)c(-c2ccc(CNCC(O)CO)cc2)c[nH]1)Nc1cc(F)c(F)cc1F (centres unmarked) [Compound 284] | > 16 µg/mL |
| NCCCNCc1ccc(-c2c[nH]c(Nc3nc4cc(F)c(F)cc4o3)nc2=O)cc1F [Compound 471] | < 16 µg/mL |
| NCCCNCc1ccc(-n2cc(F)c(N)nc2=O)cc1 [Compound 137] | > 16 µg/mL |
| N=C(N)NCCCCCN1CCC(c2c[nH]c(Nc3nc4ccccc4[nH]3)nc2=O)CC1 [Compound 503] | > 16 µg/mL |
| N=C(N)NCCCN(CCCN)Cc1ccc(-c2c[nH]c(NC(N)=O)nc2=O)cc1 [Compound 168] | < 16 µg/mL |
| CC(C)=CCN(CCCN)Cc1ccc(-c2c[nH]c(NC(=O)Nc3ccccc3OC(F)(F)F)nc2=O)cc1 [Compound 304] | < 16 µg/mL |
| O=C(Nc1nc(=O)c(-c2ccc(CNCC(O)CO)cc2)c[nH]1)Nc1ccccc1OC(F)(F)F (centres unmarked) [Compound 283] | > 16 µg/mL |
| NCCCN(CCCNC(N)N)Cc1ccc(-c2c[nH]c(Nc3nc4ccccc4[nH]3)nc2=O)cc1 [Compound 474] | < 16 µg/mL |
| NCCCNCc1ccc(-c2c[nH]c(NC(=O)Nc3cccc([N+](=O)[O-])c3)nc2=O)cc1F [Compound 485] | > 16 µg/mL |
| N#Cc1cccc(NC(=O)Nc2nc(=O)c(-c3ccc(CNCCCN)c(F)c3)c[nH]2)c1 [Compound 486] | > 16 µg/mL |
| NCCCNCc1ccc(-c2c[nH]c(Nc3ccc(C(F)(F)F)cc3)nc2=O)cc1 [Compound 487] | > 16 µg/mL |
| N=C(N)NCCC[C@@H](CCCn1ccc(NC(=O)Nc2ccc(F)cc2)nc1=O)NCCCN [Compound 148] | > 16 µg/mL |
| NCCCN(CCCN)Cc1ccc(-c2c[nH]c(Nc3nc4cc(C(F)(F)F)ccc4s3)nc2=O)cc1F [Compound 357] | > 16 µg/mL |
| NCCCNCc1ccc(-c2c[nH]c(NC(=O)Nc3cccc(Cl)c3Cl)nc2=O)cc1C(F)(F)F [Compound 259] | < 16 µg/mL |
| CN(C)c1ccc(NC(=O)Nc2ccn(CCC[C@H](CCCNC(=N)N)NCCCN)c(=O)n2)cc1 [Compound 152] | > 16 µg/mL |
| N[C@@H]1CCN(C(=O)Cc2c[nH]c(NC(=O)Nc3ccccc3OC(F)(F)F)nc2=O)C1 [Compound 410] | > 16 µg/mL |
| NC(N)NCCCN1CCC(c2c[nH]c(NC(=O)Nc3ccccc3OC(F)(F)F)nc2=O)CC1 [Compound 456] | > 16 µg/mL |
| N=C(N)NCCC[C@@H](CCCn1ccc(NC(=O)Nc2ccc(F)cc2F)nc1=O)NCCCN [Compound 159] | > 16 µg/mL |
| NCCCCCN1CCN(c2c[nH]c(Nc3nc4cc(F)c(F)cc4[nH]3)nc2=O)CC1 [Compound 541] | > 16 µg/mL |
| NCCCN1CCC[C@@H](NC(=O)Nc2nc(=O)c(-c3ccc(CN)cc3)c[nH]2)C1 [Compound 1304] | > 16 µg/mL |
